Each structure is given as a SMILES string. Values joined by “and” are separate entries in the source; they are usually repeats but may differ in a detail not shown here. Equal entries are not always repeated. Inconclusive results and toxic doses are left out.

The test relates to P388 leukemia ip, CD2F1 mice, survival T/C. Kind of test: NCI In Vivo Anticancer Drug Screen. Data for tumor model P388 Leukemia (intraperitoneal) in CD2F1 (CDF1) mice. As to conditions: endpoint: median survival time, higher = longer survival. The procedure, abridged: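 Mice carrying the transplanted tumor received test compound or vehicle. Survival was recorded in each group, and the value is the treated-group measurement divided by that of the vehicle-treated control group.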

The mark [1] stands for this setting: dose: 50.0 mg/kg/injection, schedule: Q01DX009 (ip), vehicle: saline with Tween-80.
Setting [2] is: dose: 100.0 mg/kg/injection, schedule: Q01DX009 (ip), vehicle: saline with Tween-80.
Setting [3] is: dose: 200.0 mg/kg/injection, schedule: Q01DX009 (ip), vehicle: saline with Tween-80.
Where [4] appears, read: dose: 400.0 mg/kg/injection, schedule: Q01DX009 (ip), vehicle: saline with Tween-80.
The mark [5] stands for this setting: dose: 50.0 mg/kg/injection, schedule: Q01DX009 (ip), vehicle: Klucel (hydroxypropylcellulose) (HPC).
[6] abbreviates: dose: 100.0 mg/kg/injection, schedule: Q01DX009 (ip), vehicle: Klucel (hydroxypropylcellulose) (HPC).
The mark [7] stands for this setting: dose: 50.0 mg/kg/injection, schedule: Q01DX005 (ip), vehicle: Klucel (hydroxypropylcellulose) (HPC).
Where [8] appears, read: dose: 100.0 mg/kg/injection, schedule: Q01DX005 (ip), vehicle: Klucel (hydroxypropylcellulose) (HPC).
The mark [9] stands for this setting: dose: 200.0 mg/kg/injection, schedule: Q01DX005 (ip), vehicle: Klucel (hydroxypropylcellulose) (HPC).
[10] abbreviates: dose: 60.0 mg/kg/injection, schedule: Q01DX005 (ip), vehicle: saline with Tween-80.
The mark [11] stands for this setting: dose: 120.0 mg/kg/injection, schedule: Q01DX005 (ip), vehicle: saline with Tween-80.
[12] abbreviates: dose: 240.0 mg/kg/injection, schedule: Q01DX005 (ip), vehicle: saline with Tween-80.
Setting [13] is: dose: 50.0 mg/kg/injection, schedule: Q01DX009 (ip), vehicle: suspension in saline.
The mark [14] stands for this setting: dose: 100.0 mg/kg/injection, schedule: Q01DX009 (ip), vehicle: suspension in saline.
[15] abbreviates: dose: 50.0 mg/kg/injection, schedule: Q01DX009 (ip), vehicle: saline.
[16] abbreviates: dose: 100.0 mg/kg/injection, schedule: Q01DX009 (ip), vehicle: saline.
The mark [17] stands for this setting: dose: 200.0 mg/kg/injection, schedule: Q01DX009 (ip), vehicle: saline.
Where [18] appears, read: dose: 100.0 mg/kg/injection, schedule: Q04DX003 (ip), vehicle: saline with Tween-80.
The mark [19] stands for this setting: dose: 200.0 mg/kg/injection, schedule: Q04DX003 (ip), vehicle: saline with Tween-80.

Take `Clc1ccc2noc(-c3ccccc3)c2c1`: the T/C is, setting by setting: under setting [1], 94 % of control; under setting [2], 91 % of control; under setting [3], 98 % of control; under setting [4], 94 % of control.
In the case of `CCOc1cccc(/C=N/NC(=O)C(N)Cc2ccc(O)cc2)c1O` (stereo unspecified), the T/C (dose: 50.0 mg/kg/injection, schedule: Q01DX005 (ip), vehicle: saline with Tween-80) is 99 % of control; the T/C (dose: 100.0 mg/kg/injection, schedule: Q01DX005 (ip), vehicle: saline with Tween-80) is 99 % of control; the T/C (dose: 200.0 mg/kg/injection, schedule: Q01DX005 (ip), vehicle: saline with Tween-80) is 99 % of control.
For the molecule `CCOC(=O)Nc1cc2c(c(N)n1)N=C(c1ccc3ccccc3c1)CN2`, the T/C is 153 % of control (dose: 5.0 mg/kg/injection, schedule: Q01DX005 (ip), vehicle: saline with Tween-80); 165 % of control (dose: 7.5 mg/kg/injection, schedule: Q01DX005 (ip), vehicle: saline with Tween-80); 166 % of control and 168 % of control (dose: 10.0 mg/kg/injection, schedule: Q01DX005 (ip), vehicle: saline with Tween-80).
As for `CC(Cl)CN(CC(C)Cl)c1ccc2c(c1)Cc1ccccc1-2` (stereo unspecified), the T/C under setting [5] is 122 % of control and the T/C under setting [6] is 112 % of control.
Take `NC(=O)C(=O)c1c(-c2ccccc2)c(-c2ccccc2)c2n1CCC2`: the T/C is 100 % of control under setting [7], 99 % of control under setting [8] and 93 % of control under setting [9].
Turning to `O=C1CSC(c2c(Cl)cccc2Cl)N1c1nncs1` (stereo unspecified), the T/C was 111 % of control under setting [10], 102 % of control under setting [11] and 98 % of control under setting [12].
In the case of `FC(F)(F)c1cc(NC(=S)SCc2ccc3c(c2)OCO3)ccc1Cl`, the T/C reads like this: under setting [13], 100 % of control; under setting [14], 100 % of control; (dose: 200.0 mg/kg/injection, schedule: Q01DX009 (ip), vehicle: suspension in saline) 100 % of control.
As for `COc1cc(Cc2n[nH]c(=S)n2-c2ccccc2)c(S(N)(=O)=O)cc1OC`, the T/C by setting is: under setting [10], 102 % of control; under setting [11], 95 % of control; under setting [12], 94 % of control.
On to `CN=C(c1ccc(NC(=O)c2ccc(C(=O)Nc3ccc(C(=NC)N4CCOCC4)cc3)c(Cl)c2)cc1)N1CCOCC1`, for which the T/C (dose: 0.19 mg/kg/injection, schedule: Q01DX005 (ip), vehicle: saline) was 97 % of control; the T/C (dose: 0.39 mg/kg/injection, schedule: Q01DX005 (ip), vehicle: saline) was 100 % of control; the T/C (dose: 0.78 mg/kg/injection, schedule: Q01DX005 (ip), vehicle: saline) was 100 % of control; the T/C (dose: 1.56 mg/kg/injection, schedule: Q01DX005 (ip), vehicle: saline) was 100 % of control; the T/C (dose: 6.25 mg/kg/injection, schedule: Q01DX005 (ip), vehicle: saline) is 107 % of control.
Take `CCCSC(=S)Nc1nc2ccc(C)cc2s1`: the T/C is 100 % of control (dose: 100.0 mg/kg/injection, schedule: Q04DX003 (ip), vehicle: saline); 93 % of control (dose: 200.0 mg/kg/injection, schedule: Q04DX003 (ip), vehicle: saline); 101 % of control (dose: 400.0 mg/kg/injection, schedule: Q04DX003 (ip), vehicle: saline).
Consider `Nc1cc2nc3ccccc3sc-2cc1=O`, for which the T/C was 112 % of control under setting [1], 111 % of control under setting [2], 113 % of control under setting [3] and 89 % of control under setting [4].
Turning to `NC1CN2CCC1CC2` (stereo unspecified), the T/C is, setting by setting: under setting [15], 104 % of control; under setting [16], 107 % of control; under setting [17], 98 % of control.
For the molecule `O=C(Nc1ccc(Cl)c(Cl)c1)n1cnc2ccccc21`, the T/C by setting is: (dose: 6.25 mg/kg/injection, schedule: Q01DX009 (ip), vehicle: saline) 105 % of control and 109 % of control; under setting [1], 98 % of control.
Take `O=C1C(c2ccccc2)=C(c2ccccc2)/C1=C/c1ccc(F)cc1`: the T/C is 112 % of control (dose: 50.0 mg/kg/injection, schedule: Q01DX001 (ip), vehicle: Klucel (hydroxypropylcellulose) (HPC)); 106 % of control (dose: 100.0 mg/kg/injection, schedule: Q01DX001 (ip), vehicle: Klucel (hydroxypropylcellulose) (HPC)); 118 % of control (dose: 200.0 mg/kg/injection, schedule: Q01DX001 (ip), vehicle: Klucel (hydroxypropylcellulose) (HPC)).
In the case of `COc1cccc2c1C(=O)c1c(O)c3c(c(O)c1C2=O)CC(OC1CC(N)C(O)C(C)O1)(C(C)=O)CC3OC1CC(N)C(O)C(C)O1` (stereo unspecified), the T/C is 107 % of control (dose: 1.56 mg/kg/injection, schedule: Q01DX009 (ip), vehicle: water); 103 % of control (dose: 3.13 mg/kg/injection, schedule: Q01DX009 (ip), vehicle: water); 108 % of control (dose: 6.25 mg/kg/injection, schedule: Q01DX009 (ip), vehicle: water); 122 % of control (dose: 12.5 mg/kg/injection, schedule: Q01DX009 (ip), vehicle: water).
As for `N=C(N)n1ncc2c1CCC/C2=N/N=C(N)N`, the T/C runs as follows: under setting [10], 99 % of control; under setting [11], 96 % of control; under setting [12], 103 % of control.
For the molecule `CC(C)Cc1cn(O)c2nc(=N)nc(N)c-2n1`, the T/C (dose: 12.5 mg/kg/injection, schedule: Q01DX009 (ip), vehicle: saline with Tween-80) is 100 % of control; the T/C (dose: 25.0 mg/kg/injection, schedule: Q01DX009 (ip), vehicle: saline with Tween-80) is 93 % of control; the T/C under setting [1] was 101 % of control.
`CSCc1ccc(C(N)C(=O)O)cc1` (stereo unspecified): the T/C was 99 % of control (dose: 50.0 mg/kg/injection, schedule: Q04DX002 (ip), vehicle: saline with Tween-80); 96 % of control (dose: 100.0 mg/kg/injection, schedule: Q04DX002 (ip), vehicle: saline with Tween-80); 99 % of control (dose: 200.0 mg/kg/injection, schedule: Q04DX002 (ip), vehicle: saline with Tween-80).
`COC(=O)CCSC(=O)NCCCCCCNC(=O)SCCC(=O)OC`: the T/C under setting [7] was 98 % of control, the T/C under setting [8] is 100 % of control and the T/C under setting [9] was 98 % of control.
Turning to `O=[N+]([O-])c1ccc(/C=C/Sc2ccccc2)o1`, the T/C under setting [13] was 99 % of control and the T/C under setting [14] was 98 % of control.
As for `Cc1ccccc1N1C(=O)[N+]2(CCCCC2)N=C1[O-]`, the T/C under setting [18] was 99 % of control; the T/C under setting [19] was 100 % of control; the T/C (dose: 400.0 mg/kg/injection, schedule: Q04DX003 (ip), vehicle: saline with Tween-80) was 92 % of control.
Take `O=C(O)CCS/N=N/c1nc2nc[nH]c(=O)c2[nH]1`: the T/C is, setting by setting: under setting [7], 107 % of control; under setting [8], 103 % of control; under setting [9], 104 % of control.
On to `CC(=O)C1C(=O)C(=O)N(c2ccc(Cl)cc2)C1=O` (stereo unspecified), for which the T/C under setting [5] is 101 % of control; the T/C under setting [6] is 96 % of control; the T/C (dose: 200.0 mg/kg/injection, schedule: Q01DX009 (ip), vehicle: Klucel (hydroxypropylcellulose) (HPC)) is 104 % of control.
For `C=C1C(=O)OC2C=C(C)CC3C=C(CCC=C(C)CCC12)C(=O)O3` (stereo unspecified), the T/C runs as follows: (dose: 50.0 mg/kg/injection, schedule: Q04DX003 (ip), vehicle: saline with Tween-80) 102 % of control; under setting [18], 104 % of control; under setting [19], 115 % of control.
As to `O=[N+]([O-])c1cc2c(cc1I)C1C(C3C2C2(Cl)C(Cl)=C(Cl)C3(Cl)C2(Cl)Cl)C2(Cl)C(Cl)=C(Cl)C1(Cl)C2(Cl)Cl` (stereo unspecified), the T/C was 108 % of control under setting [15], 106 % of control under setting [16] and 106 % of control under setting [17].
Regarding `COC(=O)c1nnc(C(=O)OC)c2c1c1ccccc1n2C(=O)c1ccccc1`, the T/C is 105 % of control under setting [10], 93 % of control under setting [11] and 91 % of control under setting [12].
The corresponding values for `Cc1ccccc1N1CC2CC3C=CC2(C1)O3` (stereo unspecified) are 104 % of control, 97 % of control and 97 % of control.
`OCC1COC(c2ccccc2)=N1` (stereo unspecified): the T/C is 100 % of control under setting [7], 99 % of control under setting [8] and 100 % of control under setting [9].
